Data published in US20250057836A1, “Compositions And Methods Targeting G12 Signaling For Bronchodilator Therapy” (Rutgers, The State University of New Jersey, priority 2017, published 2025).
“Also recorded” adds a separate entry of the source. Where a name gives a salt, the structure may show the parent alone.

Columns and labels:
[1] = test system: AKT phosphorylation at S473 (pAKT); assay: Immunoblot of AKT phosphorylation in HASMCs; format: cell-based, human
Method: Isolation and culture of HASMC. Human lungs were received from the National Disease Research Interchange (Philadelphia, PA, USA) and from the International Institute for the Advancement of Medicine (Edison, NJ, USA) and HASM cells were derived from the tracheas. […] Culture of HASM cells was conducted as described previously (Panettieri et al., 1989a). Briefly, cells were cultured in Ham's F-12 medium supplemented with 100 U mL^−1 penicillin, 0.1 mg mL^−1, streptomycin, 2.5 mg mL^−1 amphotericin B and 10% FBS. Medium was replaced every 72 hours. HASM cells were only used during subculture passages 1-4 due to the strong expression of native contractile proteins (Panettieri et al., 1989b). In pertussis toxin studies, cells were treated with 1 μg/ml of pertussis toxin for 18 hours. […]
Immunoblot analysis. […] Phosphorylation of MYPT1, MLC and AKT were assessed, and band densities were normalized to GAPDH, total MYPT1, total MLC, or total AKT band density.
Statistical analysis. […] For experiments comparing agonist responses in primary cells, conditions were all normalized to the basal condition and subsequently analyzed statistically. GraphPad Prism software (La Jolla, CA, USA) was used to determine statistical significance evaluated by Student's unpaired t-test for two groups or ANOVA with Bonferroni post-test for 3 or more groups. […]

[2] = test system: human precision-cut lung slices (hPCLS); assay: hPCLS airway dilation assay; format: cell-based
[3] = test system: isoproterenol-mediated cAMP production; assay: cAMP assay in HASMCs; format: cell-based, human; settings: pertussis toxin 18 h, 1 μg/ml; 306±23 fold without PTX
Method: Isolation and culture of HASMC. Human lungs were received from the National Disease Research Interchange (Philadelphia, PA, USA) and from the International Institute for the Advancement of Medicine (Edison, NJ, USA) and HASM cells were derived from the tracheas. […] Culture of HASM cells was conducted as described previously (Panettieri et al., 1989a). Briefly, cells were cultured in Ham's F-12 medium supplemented with 100 U mL^−1 penicillin, 0.1 mg mL^−1, streptomycin, […] amphotericin B and 10% FBS. Medium was replaced every 72 hours. HASM cells were only used during subculture passages 1-4 due to the strong expression of native contractile proteins (Panettieri et al., 1989b). In pertussis toxin studies, cells were treated with 1 μg/ml of pertussis toxin for 18 hours. All pharmacologic inhibitors were used with DMSO as the vehicle at a final concentration of 0.1% and were used to treat HASMC 30 minutes prior to agonist stimulation.
cAMP Assay. HASMCs were seeded in a 24-well plate until about 80% confluent and serum-deprived overnight. Cells were stimulated and lysed using cAMP-Screen System ELISA from Applied Biosystems (Bedford, MA, USA). Experiment was conducted according to manufacturer's protocol.

rhosin
carbachol-induced phosphorylation of AKT (fold over basal) ([1]; primary HASMCs, rhosin 10 μM 30 minutes, carbachol 10 μM 10 min, vehicle 4.4±0.8 fold): 0.6±0.1 fold | bronchodilation of carbachol-preconstricted hPCLS ([2]; increasing doses of rhosin after carbachol, compared with formoterol): comparable to formoterol; also recorded: reverses carbachol-induced bronchoconstriction in a dose-dependent manner

COc1ccc(CC(C)NCC(O)c2ccc(O)c(NC=O)c2)cc1 (centres unmarked) [Formoterol, formoterol fumarate dihydrate]
EC50 ([2]; Homo sapiens, read-out: log EC50, reversal of carbachol-induced bronchoconstriction (converted)): 501 nM

pertussis toxin
effect on carbachol-induced AKT phosphorylation compared to vehicle ([1]; pertussis toxin 18 h, 1 μg/ml before carbachol 10 μM 10 min, vehicle 0.01% DMSO): little effect | isoproterenol-mediated cAMP elevation in the presence of carbachol (fold over basal) [3]: 461±37 fold
